Reference: patent publication US12233060B2, “Inhibitors of Ataxia-Telangiectasia Mutated and Rad3-related protein kinase (ATR) for use in methods of treating cancer” (THE INSTITUTE OF CANCER RESEARCH: ROYAL CANCER HOSPITAL, priority 2016, dated 2025)

Assays:
[1] = tested on: Arid1a+/+ and Arid1a−/− mouse embryonic stem (ES) cells; assay: Clonogenic survival of mouse Arid1a isogenic ES cells; format: cell-based; settings: p<0.001 ANOVA
Procedure: FIG. 2. In vitro ARID1A/ATR synthetic lethality. A. Chemical structure of VX-970. B. Western blot of ARID1A in human ARID1A isogenic HCT116 cells. C. Image of colonies in 6 well-plate clonogenic assay. HCT116 ARID1A isogenic (^+/+ and ^−/−) cell lines were exposed to increasing concentrations of the VE-821 (0, 0.1, 1 uM) and VX-970 (0, 0.01, 0.05 uM) for 14 days. D and E. Dose response clonogenic survival curve of HCT116 ARID1A isogenic (^+/+ and ^−/−) cell lines exposed to increasing concentrations of the VE-821 and VX-970 for 14 days. Error bars represent SD from triplicate experiments, ANOVA p-value of <0.0001. F. Area under curve (AUC) box whisker comparison plot for human tumor cell lines exposed to VX-970 for five days. ARID1A wild type tumor cell lines (n=15) were compared to ARID1A mutant cell lines (n=9). Student's t-test p=0.00594. G. Dose response clonogenic survival curve of mouse Arid1a isogenic ES cell lines. Experiment was performed as per (C). Error bars represent SD from triplicate experiments, ANOVA p value of <0.0001. H. Western blot of Arid1a protein expression in mouse ES Arid1a isogenic cells. […]
Short-term survival assays were performed in 384-well plates. […] Drug was added 24 h after seeding and cells were continuously exposed to the drug for five days, after which cell viability was estimated using CellTitre-Glo luminescence (Promega). […] Colonies were counted manually. […]

[2] = tested on: HCT116 ARID1A+/+ and ARID1A−/− cells; assay: Apoptosis assay (caspase-3/7 activity); format: cell-based, human; settings: 24 hours exposure; p<0.05 Student's t-test
Procedure: FIG. 3. In vivo ARID1A/ATR synthetic lethality. A. Schematic of VX-970 therapy experiment in mice bearing established HCT116 ARID1A^+/+ and ARID1A^−/− xenografts. Cells were inoculated subcutaneously into nude mice and tumors allowed to establish for 10 days. Mice were then randomized to treatment regimens of either VX-970 (60 mg/kg, 4× weekly by oral gavage) or vehicle. Mice were then treated for a subsequent 40 days. Tumor volume was monitored twice weekly. B. Relative tumor volume plot from (A) showing efficacy of VX-970 and selectivity for ARID1A^−/− xenografts* p=0.024, ANOVA. C. Schematic of tumor incidence experiment in mice with non-established HCT116 ARID1A^+/+ and ARID1A^−/− xenografts. […] Tumor volume was monitored twice weekly and overall tumour incidence was assessed 40 days later. […] PARP-1, cleaved PARP-1 (85 kDa fragment) and tubulin were detected by western blot. […] Caspase3/7 activity was assessed using Caspase-Glo and total cellular viability was estimated using CellTitre-Glo. Luminescence ratios for Caspase-Glo (i.e. apoptotic cells) and CellTitre-Glo (ie viable cells) was determined for each dose and normalized to DMSO treated samples. *Student's t-test, p<0.05. […]
FIG. 5. […] The percentage of cells in G2/M was measured by FACS following PI staining. […] A minimum of 50 anaphases were scored in 3 biological replicate experiments. *p=0.023, Student's t-test. […]

SMILES: CNCc1ccc(-c2cc(-c3nc(-c4ccc(S(=O)(=O)C(C)C)cc4)cnc3N)on2)cc1 [VX-970, 5-[4-(Isopropylsulfonyl)phenyl]-3-(3-{4-[(methylamino)methyl]phenyl}-1,2-oxazol-5-yl)-2-pyrazinamine]
- selective targeting of Arid1a−/− ES cells in clonogenic assays [1]: selectively targeted Arid1a^−/− ES cells
- caspase-3/7 activation, ARID1A−/− vs ARID1A+/+ [2]: higher caspase-3/7 activation
